# How the values were obtained:
# P. aeruginosa UNC-D [1] = experiment: Minimum inhibitory concentrations of the UNC-D strain; format: cell-based; conditions: for MIC: Pseudomonas aeruginosa, read-out: Minimum inhibitory concentration
# Description: P. aeruginosa UNC-D is a sputum isolate from a patient with cystic fibrosis. [Lawrenz M B, et al. Pathog. Dis. 73 (2015)]. Bacteria were cultured on trypticase soy agar (TSA) plates and in Lennox broth at 37° C. with shaking of broth cultures. […] Bacteria were prepared for animal challenge studies by culturing bacteria in Lennox broth overnight and washing the bacteria into 1×PBS before diluting to a final concentration based on OD600-based estimates and a final 50 μl delivery dose. Bacterial inocula were confirmed by serial dilution and colony enumeration on TSA plates.
# S. pneumoniae isolates = conditions: pediatric population; Cai et al. 2018; cited from earlier work
# [2] = system: Streptococcus pneumoniae type 3; experiment: Antibiotic-sensitive pneumococcal pneumonia, CD1 mice, delayed treatment; format: in vivo; conditions: PEN 100 μg i.m. on days 2 and 3 after infection; FIG. 3B
# [3] = system: Streptococcus pneumoniae type 14; experiment: Antibiotic-resistant pneumococcal pneumonia, CD1 mice, delayed treatment; format: in vivo
# [4] = system: Streptococcus pneumoniae type 14; experiment: In vitro bacterial growth, 1 h culture; format: cell-based; conditions: PEN 16 μg/ml, pGSN 250 μg/ml, average of 2 replicates
# [5] = system: Streptococcus pneumoniae type 14; conditions: cited from earlier work
# P. aeruginosa UNC-D [6] = experiment: Multidrug-resistant P. aeruginosa pneumonia in neutropenic BALB/c mice; format: in vivo
compound,measurement,setting,value
CCN1CCN(C(=O)N[C@@H](C(=O)N[C@@H]2C(=O)N3[C@@H]2SC(C)(C)[C@@H]3C(=O)O)c2ccccc2)C(=O)C1=O [piperacillin],MIC,P. aeruginosa UNC-D [1],16 µg/mL
NC[C@H]1O[C@H](O[C@H]2[C@H](O)[C@@H](O[C@H]3O[C@H](CO)[C@@H](O)[C@H](N)[C@H]3O)[C@H](N)C[C@@H]2N)[C@H](N)C[C@@H]1O [tobramycin],MIC,P. aeruginosa UNC-D [1],32 µg/mL
colistin,Minimum inhibitory concentration,P. aeruginosa UNC-D [1],1 µg/mL
CC[C@H]1OC(=O)[C@H](C)[C@@H](O[C@H]2C[C@@](C)(OC)[C@@H](O)[C@H](C)O2)[C@H](C)[C@@H](O[C@@H]2O[C@H](C)C[C@H](N(C)C)[C@H]2O)[C@](C)(O)C[C@@H](C)C(=O)[C@H](C)[C@@H](O)[C@]1(C)O [erythromycin],resistance of S. pneumoniae isolates from invasive infections,S. pneumoniae isolates,96%
penicillin,survival,[2],100%
same,total lavage neutrophils,"[3]; lung lavage 48 hours after infection, single dose, n=5-6/group",153±74 ×10E4
same,survival (final four experiments),"[3]; treatment from 24 h after infection, daily for 9 days, pGSN 5 mg i.p., PEN 1 mg i.m., FIG. 4A",no benefit
same,increase in bacterial CFU,[4],105000 CFU
same,minimum inhibitory concentration (MIC),[5],8 µg/mL
C[C@@H](O)[C@H]1C(=O)N2C(C(=O)O)=C(SCCN=CN)C[C@H]12 [imipenem],MIC,P. aeruginosa UNC-D [1],16 µg/mL
CC(C)(O/N=C(\C(=O)N[C@@H]1C(=O)N2C(C(=O)[O-])=C(C[n+]3ccccc3)CS[C@H]12)c1csc(N)n1)C(=O)O [ceftazidime],MIC,P. aeruginosa UNC-D [1],32 µg/mL
C[C@H]1[C@H](NC(=O)/C(=N\OC(C)(C)C(=O)O)c2csc(N)n2)C(=O)N1S(=O)(=O)O [aztreonam],MIC,P. aeruginosa UNC-D [1],4 µg/mL
C[C@@H](O)[C@H]1C(=O)N2C(C(=O)O)=C(S[C@@H]3CN[C@H](C(=O)N(C)C)C3)[C@H](C)[C@H]12 [meropenem],MIC,P. aeruginosa UNC-D [1],8 µg/mL
same,survival in each of experiments 1 and 2,P. aeruginosa UNC-D [6]; 1250 mg/kg/day of meropenem,≤ 50%
same,"mean pathology score (lung, maximum 16)","P. aeruginosa UNC-D [6]; 1250 mg/kg/day, two independent studies combined, FIG. 9C, p=0.0049",6.86
same,"near-normal lung histopathology, surviving mice as the denominator",P. aeruginosa UNC-D [6]; 26/35 vs 38/46,74.3%
same,"overall survival, all dosing groups in the 3 experiments combined",P. aeruginosa UNC-D [6]; 35/64 without and 46/64 with rhu-pGSN,55%
same,overall survival with minor lung injury (pathology scores ≤2),"P. aeruginosa UNC-D [6]; all meropenem doses, three experiments, 26/64 vs 38/64, FIG. 10",41%
same,spread to spleen / splenic counts,"P. aeruginosa UNC-D [6]; both studies, combined data, pGSN given with meropenem",controlled spread from lung to spleen
same,"survival, third experiment","P. aeruginosa UNC-D [6]; different lot of meropenem, meropenem only group",75%
same,"survival with near-normal lungs, control survival rate between 25% and 75%","P. aeruginosa UNC-D [6]; exploratory post-hoc analysis, 12/32 vs 27/32",37.5%
same,"survival for 7 days, two sequential studies combined","P. aeruginosa UNC-D [6]; meropenem 1250 mg/kg/day s.c. q8h 5 days, rhu-pGSN 12 mg/day i.p. days -1 to +5, FIG. 7C",31%
same,time to restoration of body temperature to 95° F. in survivors,"P. aeruginosa UNC-D [6]; two studies with survival advantage, FIG. 11",3-5 days post-infection
C[C@@H]1O[C@@H]1P(=O)(O)O [fosfomycin],MIC,P. aeruginosa UNC-D [1],256 µg/mL
trimethoprim-sulfamethoxazole,resistance of S. pneumoniae isolates from invasive infections,S. pneumoniae isolates,79%

# — patent US20220339243A1, “COMPOSITIONS AND SYNERGISTIC METHODS FOR TREATING INFECTIONS” (BioAegis Therapeutics Inc., priority 2019, published 2022)
